US20160106711A1, “3-3-Di-Substituted-Oxindoles as Inhibitors of Translation Initiation” (President and Fellows of Harvard College, priority 2012, published 2016)

How the values were obtained:
CRL-2813 = experiment: Cell growth assay (sulforhodamine B), CRL-2813 cells; format: cell-based, human; details: Homo sapiens, CRL2813, 120 h, 5 days, SRB
Experimental: (§1) Adherent mouse (KLN) and human solid tumor cells (CRL-2351, and CRL-2813) were plated in 96-well plates and maintained for 5 days in the presence of 0.54 to 6 μM of individual compound, and cell proliferation was measured by the sulforhodamine B (SRB) assay as described in ref. 11: briefly, cells were fixed in 10% cold trichloroacetic acid at 4° C. for 1 h, extensively washed with double-distilled H2O and air-dried. Plates were then incubated with 0.4% SRB in 1% acetic acid for 1 h, washed with 1% acetic acid to remove the unbound dye, and air-dried. The bound dye was solubilized by addition of 10 mM Tris (pH 10), and the absorbance was determined in a Titertek Multiscan plate reader at 490 nm. The data calculations were carried out as described (the values for mean±SD of data from replicate wells are calculated): data are expressed in terms of % T/C [(OD of treated cells/OD of control cells)×100], as a measure of cell viability and survival in the presence of test materials. Calculations are also made for the concentration of test agents giving a T/C value of 50%, or 50% growth inhibition (IC50). With the SRB assay, a measure is made of the cell population density at time 0 (the time at which drugs are added) from two extra reference plates of inoculated cells fixed with TCA just prior to drug addition to the test plates. Thus, we have three measurements: control optical density (C), test optical density (T), and optical density at time zero (T0). The calculation is 100×[(T−T0)/(C−T0)]. If T is less than T0, cell killing has occurred and can be calculated from 100×[(T−T0)/T0]. Thus, for each drug-cell line combination, a dose-response curve is generated and three levels of effect are calculated.

[1] = test system: eIF2•GTP•Met-tRNAi ternary complex; experiment: Ternary complex assay (ATF-4 assay), dual luciferase firefly/renilla ratio; format: cell-based, mouse; details: Mus musculus; for maximal fold induction at 40 µM: read-out: ATF-4 Xmax @ 40 μM
Excerpt: For assay development, a bi-directional plasmid was designed in which a common promoter/enhancer complex drives the transcription of firefly luciferase (F-luc) ORF fused to the 5′ untranslated region (UTR) of ATF-4, and of the renilla luciferase (R-luc) ORF fused to a 90-nucleotide 5′ UTR derived from the plasmid (FIG. 6A). Because the tetracycline-regulated transactivator ((tTA), required for driving transcription from this vector) is not normally expressed in the mammalian cells, stable KLN cancer cells were constructed that expressed tTA (KLN-tTA).
The KLN-tTA colonies that drove expression of reporter genes from pBISA-DL plasmid were selected by transient transfection and dual luciferase assay. One of these KLN-tTA cell lines was transfected with the pBISA-DL^(ATF-4) expression vector, stable colonies were selected by dual luciferase assay and expanded.
Plasmids and Ternary Complex Assay
(ATF-4 Assay). Briefly, bi-directional mammalian expression vector pBI (Clontech, CA) was modified to expand the multiple cloning sites (MCSs) and designated thereafter as pBISA. This vector contains seven copies of the tetracycline-regulated transactivator response element (TRE), which together act as core promoter/enhancer. The TRE is flanked on both sides by minimal human cytomegalovirus (CMV) minimal promoters allowing bi-directional transcription and two MCSs. Firefly and renilla luciferases were subcloned into MCS-I and MCS-II, respectively. This plasmid, designated pBISA-DL, transcribes two mRNAs that contain the 90 nucleotide plasmid derived 5′UTR (same sequence in both mRNAs), and the ORF encoding either firefly or renilla luciferase followed by a polyadenylation sequence as described in Ziegeler, G.; Ming, J.; Koseki, J. C.; Sevinc, S.; Chen, T.; Ergun, S.; Qin, X.; Aktas, B. H. J. Biol. Chem. 2010, 285, 15408 hereby incorporated by reference. This plasmid was further modified by inserting the 5′UTR of ATF-4 into MCS-I in front of the firefly luciferase mRNA. Transcription from this direction generates an mRNA that contains the firefly luciferase ORF preceded by a 5′UTR composed of 90 nucleotides derived from the plasmid and 267 nucleotides derived from the 5′UTR of ATF-4 mRNA. Transcription from the other direction generates an mRNA that contains the renilla luciferase ORF proceeded only by the 90-nucleotide plasmid-derived sequence in the 5′UTR. This expression plasmid is called pBISA-DL(ATF-4). In the dual luciferase assay, cells expressing firefly and renilla luciferases were lysed and the extracts assayed with a Dual-Glo Luciferase assay kit, per manufacturer's instruction (Promega Inc., Madison, Wis.). The data calculations were carried out as the ratio of firefly to renilla luciferase signal as described in Chen, T.; Ozel, D.; Qiao, Y.; Harbinski, F.; Chen, L.; Denoyelle, S.; He, X.; Zvereva, N.; Supko, J. G.; Chorev, M.; Halperin, J. A.; Aktas, B. H. Nat. Chem. Biol. 2011, 7, 610 hereby incorporated by reference.

KLN = experiment: Cell growth assay (sulforhodamine B), KLN cells; format: cell-based, mouse; details: Mus musculus, 120 h, 5 days, SRB
Experimental: as §1, with “Adherent mouse (KLN) and human solid tumor cells (CRL-2351, and CRL-2813) were plated in 96-well plates and maintained for 5 days in the presence of 0.54 to 6 μM of individual compound, and cell proliferation was measured by the sulforhodamine B (SRB) assay as described in ref. 11: briefly, cells were fixed in 10% cold trichloroacetic acid at 4° C. for 1 h, extensively washed with double-distilled H2O and air-dried.” left out

CRL-2351 = experiment: Cell growth assay (sulforhodamine B), CRL-2351 cells; format: cell-based, human; details: Homo sapiens, 120 h, 5 days, SRB
Experimental: as §1

SMILES	IC50 (CRL-2813) [µM]	maximal fold induction at 40 µM [1]	IC50 (KLN) [µM]	IC50 (CRL-2351) [µM]	maximal fold induction at 80 µM ([1]; read-out: ATF-4 Xmax)	maximal fold induction at 20 µM ([1]; 20 uM, read-out: ATF-4 Xmax)	maximal fold induction at 10 µM ([1]; read-out: ATF-4 Xmax)	maximal fold induction at 2.5 µM ([1]; read-out: ATF-4 Xmax)
CC(C)(C)c1ccc(O)c(C2(c3ccccc3)C(=O)Nc3ccc4ncsc4c32)c1 (stereo not shown) [Sd233]	0.95 ± 0.1	1.2 ± 0.05	8	2.2 ± 1				
CC(C)(C)c1ccc(O)c(C2(c3cc(C(C)(C)C)ccc3OCCN3CCOCC3)C(=O)Nc3ccccc32)c1 (stereo not shown) [HY063]	3.2 ± 0.2	4.4 ± 1.5	7.4 ± 2.5	1.6 ± 0.2				
COc1ccc(C(C)C)cc1C1(c2cc(C(C)C)ccc2O)C(=O)Nc2ccccc21 (stereo not shown) [HY161]	1.4 ± 0.09	3.91 ± 0.65	> 20	7.2 ± 3				
COc1ccc(C2(c3cc(C(C)(C)C)ccc3OCCN3CCOCC3)C(=O)Nc3ccccc32)cc1OC (stereo not shown) [Sd152, 3-{5-tert-butyl-2-[2-(morpholin-4-yl)ethoxy]phenyl}-3-(3,4-dimethoxyphenyl)-indol-2-one]	> 20		> 20	> 20	2.8			
CC(C)(C)c1ccc(OCCN2CCNCC2)c(C2(c3ccccc3)C(=O)Nc3ccccc32)c1 (stereo not shown) [Sd049, 33-{5-tert-butyl-2-[2-(piperazin-1-yl)ethoxy]phenyl}-3-phenylindol-2-one]	12.8 ± 0.8		1.2 ± 0.3	0.9 ± 0.1		2.1 ± 0.65		
CN(C)CCOc1ccc(C(C)(C)C)cc1C1(c2ccccc2)C(=O)Nc2ccccc21 (stereo not shown) [Sd028, 3-(5-tert-Butyl-2-(2-(dimethylamino)ethoxy)phenyl)-3-phenylindolin-2-one]	2.4 ± 0.4		1.2 ± 0.3	1.4 ± 0.3			2.69 ± 0.36	
COc1ccc(C2(c3cc(C(C)(C)C)ccc3O)C(=O)Nc3ccc(OC)cc32)cc1 (stereo not shown) [Sd184]	11.1 ± 1.1	4 ± 0.36	14.3 ± 3	2.9 ± 0.3				
CN1CCN(CCOc2ccc(C(C)(C)C)cc2C2(c3cc(C(C)(C)C)ccc3OCCN3CCN(C)CC3)C(=O)Nc3ccccc32)CC1 [HY413]	0.74 ± 0.01		0.85 ± 0.02	0.2 ± 0.08			9.7 ± 3.8	
CN(C)CCOc1ccc(C(C)(C)C)cc1C1(c2cc(C(C)(C)C)ccc2OCCN(C)C)C(=O)N(CCN(C)C)c2ccccc21 [HY092]	0.9 ± 0.01		0.2 ± 0.03	0.34 ± 0.18				16.8 ± 2.18
CC(C)(C)c1ccc(O)c(C2(c3ccc(CN4CCOCC4)cc3)C(=O)Nc3ccccc32)c1 (stereo not shown) [HY016, 3-(5-tert-butyl-2-hydroxyphenyl)-3-(4-(Morpholinomethyl)phenyl)Indolin-2-One]	7.8 ± 0.66		17.3 ± 2.4	7.3 ± 3.6	8.5 ± 5.3			
COc1ccc(C2(c3cc(OC(C)C)ccc3OCCN3CCOCC3)C(=O)Nc3ccccc32)cc1 (stereo not shown) [Sd179, 3-(4-Methoxyphenyl)-3-{2-[2-(morpholin-4-yl)ethoxy]-5-(propan-2-yloxy)phenyl}-indol-2-one]	13.4 ± 0.7		11.8 ± 1	8.6 ± 1	2.6 ± 0.14			
CN(C)c1ccc(C2(c3cc(C(C)(C)C)ccc3OCCN3CCOCC3)C(=O)Nc3ccccc32)cc1 (stereo not shown) [Sd154, 3-{5-tert-butyl-2-[2-(morpholin-4-yl)ethoxy]phenyl}-3-[4-(dimethylamino)phenyl]-indol-2-one]	7.5 ± 1	7.15 ± 0.49	2.2 ± 0.6	4.7 ± 0.3				
CN(C)c1ccc(C2(c3cc(C(C)(C)C)ccc3O)C(=O)Nc3ccccc32)cc1 (stereo not shown) [Sd153]	11	3.55	10.9 ± 1.3	2.3 ± 0.3				
CC(C)(C)c1ccc(OCCN2CCCC2)c(C2(c3cc(C(C)(C)C)ccc3OCCN3CCCC3)C(=O)N(CCN3CCCC3)c3ccccc32)c1 [HY193]	1.47 ± 1	9.09	2.11 ± 1.1	0.55 ± 0.17				12.1 ± 1.8
COc1ccc(C2(c3cc(C(C)(C)C)ccc3O)C(=O)Nc3ccccc32)cc1 (stereo not shown) [Sd086]	2.75 ± 0.1	5.6 ± 0.5	15.7 ± 1.1	2.65 ± 0.1				
